In brackets after ≈: the same amount, converted by molar mass. Where two headings read alike, the source gives them in different places.
What was measured:
[1] = system: L. gasseri MCC2 DSM 23882; assay: Antibiotic susceptibility, E-test; assay type: cell-based
Description: (§1) Methodology: The susceptibility of L. plantarum MCC1 and L. gasseri MCC2 to antibiotics was tested with the help of E-test (AB Biodisk, Solna). The minimum inhibitory concentration was determined according to the epidemiological breakpoints recommended by the European Commission.

[2] = system: Lactobacillus spp; conditions: European Commission 2002; cited from earlier work
[3] = system: L. plantarum MCC1 DSM 23881; assay: Antibiotic susceptibility, E-test; assay type: cell-based; conditions: for resistance of L. plantarum MCC1 to the antibiotic: according to European Commission indicators for lactobacilli
Description: as §1

[4] = system: Obligately homofermentative lactobacilli (OHOL); conditions: FEEDAP Panel EFSA 2008; cited from earlier work
[5] = system: L. plantarum; conditions: FEEDAP Panel EFSA 2008; cited from earlier work
[6] = Lactobacillus gasseri, DSM23882, read-out: MIC
[7] = E-test, against L. gasseri MCC2
[8] = Lactiplantibacillus plantarum, DSM23881, read-out: MIC
[9] = E-test, against L. plantarum MCC1
[10] = Lactiplantibacillus plantarum, DSM23881

Row | Molecule | MIC [1, 6] | MIC breakpoint for resistance, Lactobacillus spp [2] | MIC [3, 8] | MIC breakpoint for resistance, OHOL [4] | MIC breakpoint for resistance, L. plantarum [5] | also measured
1 | C[C@@H](O)[C@H]1C(=O)N2C(C(=O)O)=C(SCCN=CN)C[C@H]12 [Imipenem] | 0.047 µg/mL (≈ 0.157 µM) |  |  |  |  | 
2 | Trim/sulfam |  | 32 µg/mL |  |  |  | MIC [1, 7]: >32 µg/mL
3 | CN(C)[C@@H]1C(O)=C(C(N)=O)C(=O)[C@@]2(O)C(O)=C3C(=O)c4c(O)cccc4[C@@](C)(O)[C@H]3C[C@@H]12 [Tetracycline] | 0.5 µg/mL (≈ 1.13 µM) |  | 2 µg/mL (≈ 4.5 µM) |  |  | 
4 | [H]/N=C(/N)N[C@H]1[C@H](O)[C@@H](O)[C@H](O[C@@H]2O[C@@H](C)[C@](O)(C=O)[C@H]2O[C@@H]2O[C@@H](CO)[C@H](O)[C@@H](O)[C@@H]2NC)[C@@H](N/C(N)=N\[H])[C@@H]1O [Streptomycin] |  | 16 µg/mL | 16 µg/mL (≈ 27.5 µM) | 16 µg/mL |  | 
5 | CCC[C@@H]1C[C@@H](C(=O)N[C@@H]([C@H]2O[C@H](SC)[C@H](O)[C@@H](O)[C@H]2O)[C@H](C)Cl)N(C)C1 [Clindamycin] |  |  | 0.064 µg/mL (≈ 0.151 µM) |  |  | 
6 | Quinupristin/dalfopristin |  | 4 µg/mL |  | 4 µg/mL | 4 µg/mL | MIC [3, 9]: 1 µg/mL
7 | CO[C@@]1(NC(=O)Cc2cccs2)C(=O)N2C(C(=O)O)=C(COC(N)=O)CS[C@@H]21 [Cefoxitin] | 1.5 µg/mL (≈ 3.51 µM) | 4 µg/mL | 256 µg/mL (≈ 599 µM) |  |  | resistance of L. plantarum MCC1 to the antibiotic [3]: resistant
8 | CC1(C)S[C@@H]2[C@H](NC(=O)[C@H](N)c3ccccc3)C(=O)N2[C@H]1C(=O)O [Ampicillin] | 0.031 µg/mL (≈ 0.0887 µM) | 2 µg/mL | 0.094 µg/mL (≈ 0.269 µM) | 1 µg/mL | 2 µg/mL | 
9 | O=C(O)c1cn(C2CC2)c2cc(N3CCNCC3)c(F)cc2c1=O [Ciprofloxacin] | > 32 µg/mL | 4 µg/mL | 0.38 µg/mL (≈ 1.15 µM) |  |  | 
10 | CN[C@H](CC(C)C)C(=O)N[C@H]1C(=O)N[C@@H](CC(N)=O)C(=O)N[C@H]2C(=O)N[C@H]3C(=O)N[C@H](C(=O)N[C@H](C(=O)O)c4cc(O)cc(O)c4-c4cc3ccc4O)[C@H](O)c3ccc(c(Cl)c3)Oc3cc2cc(c3O[C@@H]2O[C@H](CO)[C@@H](O)[C@H](O)[C@H]2O[C@H]2C[C@](C)(N)[C@H](O)[C@H](C)O2)Oc2ccc(cc2Cl)[C@H]1O [Vancomycin] |  | 4 µg/mL |  | 2 µg/mL |  | MIC [3, 10]: 256 µg/mL (≈ 177 µM); resistance of L. plantarum MCC1 to the antibiotic [3]: resistant; MIC ([1]; Lactobacillus gasseri, DSM23882): 0.75 µg/mL (≈ 0.518 µM)
11 | Gentamicin |  | 1 µg/mL |  | 16 µg/mL | 16 µg/mL | MIC [3, 9]: 1.5 µg/mL; MIC [1, 7]: 2 µg/mL
12 | CO[C@H]1/C=C/O[C@@]2(C)Oc3c(C)c(O)c4c(O)c(c(/C=N/N5CCN(C)CC5)c(O)c4c3C2=O)NC(=O)/C(C)=C\C=C\[C@H](C)[C@H](O)[C@@H](C)[C@@H](O)[C@@H](C)[C@H](OC(C)=O)[C@@H]1C [Rifampin] | 0.064 µg/mL (≈ 0.0778 µM) | 32 µg/mL |  |  |  | 
13 | CO/N=C(\C(=O)N[C@@H]1C(=O)N2C(C(=O)O)=C(COC(N)=O)CS[C@H]12)c1ccco1 [Cefuroxim] | 0.19 µg/mL (≈ 0.448 µM) |  | 0.5 µg/mL (≈ 1.18 µM) |  |  | 
14 | CC[C@H]1OC(=O)[C@H](C)[C@@H](O[C@H]2C[C@@](C)(OC)[C@@H](O)[C@H](C)O2)[C@H](C)[C@@H](O[C@@H]2O[C@H](C)C[C@H](N(C)C)[C@H]2O)[C@](C)(O)C[C@@H](C)C(=O)[C@H](C)[C@@H](O)[C@]1(C)O [Erythromycin] | 0.047 µg/mL (≈ 0.064 µM) | 4 µg/mL |  | 1 µg/mL | 1 µg/mL | MIC [3, 10]: 0.125 µg/mL (≈ 0.17 µM)
15 | O=C(N[C@H](CO)[C@H](O)c1ccc([N+](=O)[O-])cc1)C(Cl)Cl [Chloramphenicol] | 0.75 µg/mL (≈ 2.32 µM) | 16 µg/mL | 1.5 µg/mL (≈ 4.64 µM) | 4 µg/mL | 8 µg/mL | 
